Entries after “also recorded” stand apart in the source; their conditions may differ.
Columns and labels:
[1] = CVC plasma exposures in clinical studies; assay type: in vivo, human; conditions: same dosing conditions; Studies 652-1-111, 652-1-110, 652-2-202
Mouse toxicity studies = assay type: in vivo; conditions: CVC doses up to 2000 mg/kg/day; no surgical procedures
[2] = Tissue distribution in rodents; assay type: in vivo
From the text: Infiltration of various immune cell populations, resulting in inflammation, is a central pathogenic feature following acute- and chronic liver injury. Chronic liver inflammation leads to continuous hepatocyte injury which can lead to fibrosis, cirrhosis, ESLD, and HCC. Interactions between intra-hepatic immune cells lead to increased activation and migration of Kupffer cells and HSCs and are critical events for developing liver fibrosis. Additionally, there is increasing evidence of the role of CCR2 and CCR5 in the pathogenesis of liver fibrosis. These members of the C-C chemokine family are expressed by pro-fibrogenic cells including pro-inflammatory monocytes and macrophages, Kupffer cells, and HSCs. CCR2 signaling plays an important role in the pathogenesis of renal fibrosis through regulation of bone marrow-derived fibroblasts. CCR2- and CCR5-positive monocytes as well as CCR5-positive T lymphocytes are attracted by locally released MCP-1 and RANTES, and can contribute to chronic interstitial inflammation in the kidney. […] Disruption of the intestinal microbiota and its downstream effects on the gut-liver axis both play an important role in metabolic disorders such as obesity, non-alcoholic fatty liver disease (NAFLD) and non-alcoholic steatohepatitis (NASH).

[3] = test system: STAM mouse model of Non-alcoholic Steatohepatitis; test: STAM mouse model of NASH, anti-HCC effects at week 18; conditions: for Mice that died (survival analysis): 6 to 18 weeks; for Body weight / CD31-positive area / Liver weight / Liver-to-body weight ratio / Maximum diameter of visible tumor nodules / Number of visible tumor nodules: mean ± SD
Procedure: Group 1-Vehicle: Eighteen NASH mice were orally administered vehicle at a volume of 10 mL/kg twice daily (9:00 and 19:00) from 6 weeks of age.

HIV-1 infected subjects = test: Study 202 safety and tolerability; assay type: in vivo, human; conditions: 115 subjects, CVC 100 mg and 200 mg for up to 48 weeks
[4] = test system: adults with CCR5 tropic HIV-1; test: Study 202 post-hoc APRI and FIB-4 fibrosis index scores; assay type: in vivo, human
Procedure: APRI and FIB-4 scores were calculated. Change in score category from baseline (BL) to Weeks 24 and 48 was assessed in patients with non-missing data. Correlations between changes from BL in APRI and FIB-4 scores, and MCP-1 (CCR2 ligand) and sCD14 (inflammatory biomarker) levels were evaluated.

[5] = CVC-high 100 mg/kg/day oral, week 18
[6] = CVC-high 100 mg/kg/day oral, week 18, listed as Cenicriviroc
[7] = CVC-low 20 mg/kg/day oral, week 18
[8] = CVC-low 20 mg/kg/day oral, week 18, listed as Cenicriviroc
[9] = Week 24, CVC pooled 100 and 200 mg, or EFV
[10] = Week 48, CVC pooled 100 and 200 mg, or EFV

CCCCOCCOc1ccc(-c2ccc3c(c2)C=C(C(=O)Nc2ccc([S@@+]([O-])Cc4cncn4CCC)cc2)CCCN3CC(C)C)cc1 [CVC, (S)-8-[4-(2-Butoxyethoxy)phenyl]-1-isobutyl-N-(4-{[(1-propyl-1H-imidazol-5-yl)methyl]sulfinyl}phenyl)-1,2,3,4-tetrahydro-1-benzazocine-5-carboxamide]
CVC plasma exposures [1]: higher in non-HIV infected healthy volunteer subjects as compared to HIV-infected subjects | Tolerability (Mouse toxicity studies): well tolerated | Tissue distribution [2]: high distribution in the liver, mesenteric lymph node, and intestine | Effect on NASH-derived HCC ([3]; CVC treatment groups, week 18): not observed | Mice that died (survival analysis) ([3]; CVC-high 100 mg/kg/day oral): Five out of twelve | Mice with GS-positive nodules [3, 5]: seven out of seven | Mice with HCC lesions (HE staining) [3, 5]: six out of seven | Body weight [3, 5]: 20.8 ± 2.7 g | CD31-positive area [3, 5]: 3.68±1.37% | Liver weight [3, 5]: 1817 ± 446 mg | Liver-to-body weight ratio [3, 5]: 8.8±2.3% | Maximum diameter of visible tumor nodules [3, 5]: 5.3±5.1 mm | Number of visible tumor nodules [3, 5]: 3.6±2.5 | Body weight [3, 6]: 20.8 ± 2.7 g | CD31-positive area [3, 6]: 3.68 ± 1.37% | Liver weight [3, 6]: 1817 ± 446 mg | Liver-to-body weight ratio [3, 6]: 8.8 ± 2.3% | Maximum diameter of visible tumor nodules [3, 6]: 5.3 ± 5.1 mm | Number of visible tumor nodules [3, 6]: 3.6 ± 2.5 | Mice that died (survival analysis) ([3]; CVC-low 20 mg/kg/day oral): Six out of twelve | Mice with GS-positive nodules [3, 7]: five out of six | Mice with HCC lesions (HE staining) [3, 7]: five out of six | Body weight [3, 7]: 22.9 ± 3.5 g | CD31-positive area [3, 7]: 1.47±1.10% | Liver weight [3, 7]: 1837 ± 410 mg | Liver-to-body weight ratio [3, 7]: 8.3±2.8% | Maximum diameter of visible tumor nodules [3, 7]: 4.8±5.4 mm | Number of visible tumor nodules [3, 7]: 1.5±1.9 | Body weight [3, 8]: 22.9 ± 3.5 g | CD31-positive area [3, 8]: 1.47 ± 1.10% | Liver weight [3, 8]: 1837 ± 410 mg | Liver-to-body weight ratio [3, 8]: 8.3 ± 2.8% | Maximum diameter of visible tumor nodules [3, 8]: 4.8 ± 5.4 mm | Number of visible tumor nodules [3, 8]: 1.5 ± 1.9 | Tolerability (HIV-1 infected subjects): generally well tolerated; also recorded: effective and well tolerated | Subjects in APRI category 0.5-1.5 [4, 9]: 7% | Subjects in APRI category <0.5 [4, 9]: 93% | Subjects in FIB-4 category 1.45-3.25 [4, 9]: 7% | Subjects in FIB-4 category <1.45 [4, 9]: 93% | Subjects with APRI decreased 1 category from baseline [4, 9]: 14% | Subjects with FIB-4 decreased 1 category from baseline [4, 9]: 13% | Subjects in APRI category 0.5-1.5 [4, 10]: 8% | Subjects in APRI category <0.5 [4, 10]: 91% | Subjects in APRI category >1.5 [4, 10]: 1% | Subjects in FIB-4 category 1.45-3.25 [4, 10]: 5% | Subjects in FIB-4 category <1.45 [4, 10]: 94% | Subjects in FIB-4 category >3.25 [4, 10]: 1% | Subjects with APRI decreased 1 category from baseline [4, 10]: 10% | Subjects with FIB-4 decreased 1 category from baseline [4, 10]: 14% | Subjects with improvements in APRI and FIB-4 scores over time ([4]; all CVC-treated subjects, pooled CVC 100 mg and 200 mg): ≥ 10%
